According to ChEMBL document CHEMBL3259797, “Radiosyntheses and in vivo evaluation of carbon-11 PET tracers for PDE10A in the brain of rodent and nonhuman primate” (Bioorg Med Chem, 2014):

Legend:
Rattus norvegicus [1] = assay: Biodistribution in Sprague-Dawley rat fat at 14.8 to 18.5 MBq, iv measured at 30 mins post-injection by gamma counting analysis; assay type: ADME, organism-based, Adipose tissue; details: in vivo, 0.5 h
Cerebellum [2] = assay: Biodistribution in Sprague-Dawley rat cerebellum at 14.8 to 18.5 MBq, iv measured at 5 mins post-injection by gamma counting analysis; assay type: ADME, organism-based; details: in vivo
Rattus norvegicus [3] = assay: Biodistribution in Sprague-Dawley rat fat at 14.8 to 18.5 MBq, iv measured at 60 mins post-injection by gamma counting analysis; assay type: ADME, organism-based, Adipose tissue; details: in vivo, 1 h
Muscle tissue [4] = assay: Biodistribution in Sprague-Dawley rat muscle at 14.8 to 18.5 MBq, iv measured at 30 mins post-injection by gamma counting analysis; assay type: ADME, organism-based; details: in vivo, 0.5 h
Striatum [5] = assay: Biodistribution in Sprague-Dawley rat striatum at 14.8 to 18.5 MBq, iv measured at 60 mins post-injection by gamma counting analysis; assay type: ADME, organism-based; details: in vivo, 1 h
Liver [6] = assay: Biodistribution in Sprague-Dawley rat liver at 14.8 to 18.5 MBq, iv measured at 60 mins post-injection by gamma counting analysis; assay type: ADME, organism-based; details: in vivo, 1 h
Blood [7] = assay: Biodistribution in Sprague-Dawley rat blood at 14.8 to 18.5 MBq, iv measured at 5 mins post-injection by gamma counting analysis; assay type: ADME, organism-based; details: in vivo
Heart [8] = assay: Biodistribution in Sprague-Dawley rat heart at 14.8 to 18.5 MBq, iv measured at 30 mins post-injection by gamma counting analysis; assay type: ADME, organism-based; details: in vivo, 0.5 h
Cerebellum [9] = assay: Biodistribution in Sprague-Dawley rat cerebellum at 14.8 to 18.5 MBq, iv measured at 60 mins post-injection by gamma counting analysis; assay type: ADME, organism-based; details: in vivo, 1 h
Cerebellum [10] = assay: Biodistribution in Sprague-Dawley rat cerebellum at 14.8 to 18.5 MBq, iv measured at 30 mins post-injection by gamma counting analysis; assay type: ADME, organism-based; details: in vivo, 0.5 h
Heart [11] = assay: Biodistribution in Sprague-Dawley rat heart at 14.8 to 18.5 MBq, iv measured at 60 mins post-injection by gamma counting analysis; assay type: ADME, organism-based; details: in vivo, 1 h
Striatum [12] = assay: Biodistribution in Sprague-Dawley rat striatum at 14.8 to 18.5 MBq, iv measured at 5 mins post-injection by gamma counting analysis; assay type: ADME, organism-based; details: in vivo
Lung [13] = assay: Biodistribution in Sprague-Dawley rat lung at 14.8 to 18.5 MBq, iv measured at 5 mins post-injection by gamma counting analysis; assay type: ADME, organism-based; details: in vivo
Liver [14] = assay: Biodistribution in Sprague-Dawley rat liver at 14.8 to 18.5 MBq, iv measured at 30 mins post-injection by gamma counting analysis; assay type: ADME, organism-based; details: in vivo, 0.5 h
Blood [15] = assay: Biodistribution in Sprague-Dawley rat blood at 14.8 to 18.5 MBq, iv measured at 60 mins post-injection by gamma counting analysis; assay type: ADME, organism-based; details: in vivo, 1 h
Lung [16] = assay: Biodistribution in Sprague-Dawley rat lung at 14.8 to 18.5 MBq, iv measured at 60 mins post-injection by gamma counting analysis; assay type: ADME, organism-based; details: in vivo, 1 h
Heart [17] = assay: Biodistribution in Sprague-Dawley rat heart at 14.8 to 18.5 MBq, iv measured at 5 mins post-injection by gamma counting analysis; assay type: ADME, organism-based; details: in vivo
Muscle tissue [18] = assay: Biodistribution in Sprague-Dawley rat muscle at 14.8 to 18.5 MBq, iv measured at 5 mins post-injection by gamma counting analysis; assay type: ADME, organism-based; details: in vivo
Brain [19] = assay: Biodistribution in Sprague-Dawley rat brain at 14.8 to 18.5 MBq, iv measured at 5 mins post-injection by gamma counting analysis; assay type: ADME, organism-based; details: in vivo
Kidney [20] = assay: Biodistribution in Sprague-Dawley rat kidney at 14.8 to 18.5 MBq, iv measured at 60 mins post-injection by gamma counting analysis; assay type: ADME, organism-based; details: in vivo, 1 h
Brain [21] = assay: Biodistribution in Sprague-Dawley rat brain at 14.8 to 18.5 MBq, iv measured at 60 mins post-injection by gamma counting analysis; assay type: ADME, organism-based; details: in vivo, 1 h
Liver [22] = assay: Biodistribution in Sprague-Dawley rat liver at 14.8 to 18.5 MBq, iv measured at 5 mins post-injection by gamma counting analysis; assay type: ADME, organism-based; details: in vivo
Brain [23] = assay: Biodistribution in Sprague-Dawley rat brain at 14.8 to 18.5 MBq, iv measured at 30 mins post-injection by gamma counting analysis; assay type: ADME, organism-based; details: in vivo, 0.5 h
Muscle tissue [24] = assay: Biodistribution in Sprague-Dawley rat muscle at 14.8 to 18.5 MBq, iv measured at 60 mins post-injection by gamma counting analysis; assay type: ADME, organism-based; details: in vivo, 1 h
Kidney [25] = assay: Biodistribution in Sprague-Dawley rat kidney at 14.8 to 18.5 MBq, iv measured at 30 mins post-injection by gamma counting analysis; assay type: ADME, organism-based; details: in vivo, 0.5 h
Rattus norvegicus [26] = assay: Biodistribution in Sprague-Dawley rat fat at 14.8 to 18.5 MBq, iv measured at 5 mins post-injection by gamma counting analysis; assay type: ADME, organism-based, Adipose tissue; details: in vivo
Kidney [27] = assay: Biodistribution in Sprague-Dawley rat kidney at 14.8 to 18.5 MBq, iv measured at 5 mins post-injection by gamma counting analysis; assay type: ADME, organism-based; details: in vivo
Nucleic Acid = assay: Ratio of drug level in striatum to cerebellum in Sprague-Dawley rat at 14.8 to 18.5 MBq, iv measured at 30 mins post-injection by gamma counting analysis; assay type: ADME, organism-based; details: in vivo, 0.5 h
Lung [28] = assay: Biodistribution in Sprague-Dawley rat lung at 14.8 to 18.5 MBq, iv measured at 30 mins post-injection by gamma counting analysis; assay type: ADME, organism-based; details: in vivo, 0.5 h
Blood [29] = assay: Biodistribution in Sprague-Dawley rat blood at 14.8 to 18.5 MBq, iv measured at 30 mins post-injection by gamma counting analysis; assay type: ADME, organism-based; details: in vivo, 0.5 h
Striatum [30] = assay: Biodistribution in Sprague-Dawley rat striatum at 14.8 to 18.5 MBq, iv measured at 30 mins post-injection by gamma counting analysis; assay type: ADME, organism-based; details: in vivo, 0.5 h

Cn1ncc(-c2ccncc2)c1-c1ccc(OCc2cc(O[11CH3])c3ccccc3n2)cc1
Drug uptake (Rattus norvegicus [1]): 0.139 % ID/g
Drug uptake (Cerebellum [2]): 0.094 % ID/g
Drug uptake (Rattus norvegicus [3]): 0.139 % ID/g
Drug uptake (Muscle tissue [4]): 0.093 % ID/g
Drug uptake (Striatum [5]): 0.037 % ID/g
Drug uptake (Liver [6]): 4.588 % ID/g
Drug uptake (Blood [7]): 0.099 % ID/g
Drug uptake (Heart [8]): 0.132 % ID/g
Drug uptake (Cerebellum [9]): 0.015 % ID/g
Drug uptake (Cerebellum [10]): 0.024 % ID/g
Drug uptake (Heart [11]): 0.103 % ID/g
Drug uptake (Striatum [12]): 0.151 % ID/g
Drug uptake (Lung [13]): 0.643 % ID/g
Drug uptake (Liver [14]): 4.43 % ID/g
Drug uptake (Blood [15]): 0.067 % ID/g
Drug uptake (Lung [16]): 0.107 % ID/g
Drug uptake (Heart [17]): 0.335 % ID/g
Drug uptake (Muscle tissue [18]): 0.146 % ID/g
Drug uptake (Brain [19]): 0.091 % ID/g
Drug uptake (Kidney [20]): 0.575 % ID/g
Drug uptake (Brain [21]): 0.015 % ID/g
Drug uptake (Liver [22]): 3.312 % ID/g
Drug uptake (Brain [23]): 0.025 % ID/g
Drug uptake (Muscle tissue [24]): 0.052 % ID/g
Drug uptake (Kidney [25]): 0.645 % ID/g
Drug uptake (Rattus norvegicus [26]): 0.066 % ID/g
Drug uptake (Kidney [27]): 1.744 % ID/g
Ratio (Nucleic Acid): 3.6
Drug uptake (Lung [28]): 0.156 % ID/g
Drug uptake (Blood [29]): 0.067 % ID/g
Drug uptake (Striatum [30]): 0.083 % ID/g

Cn1cc(-c2ccncc2)c(-c2ccc(OCc3ccc4cc(O[11CH3])ccc4n3)cc2)n1
Drug uptake (Rattus norvegicus [1]): 0.221 % ID/g
Drug uptake (Cerebellum [2]): 0.251 % ID/g
Drug uptake (Rattus norvegicus [3]): 0.135 % ID/g
Drug uptake (Muscle tissue [4]): 0.175 % ID/g
Drug uptake (Striatum [5]): 0.089 % ID/g
Drug uptake (Liver [6]): 1.724 % ID/g
Drug uptake (Blood [7]): 0.282 % ID/g
Drug uptake (Heart [8]): 0.264 % ID/g
Drug uptake (Cerebellum [9]): 0.066 % ID/g
Drug uptake (Cerebellum [10]): 0.09 % ID/g
Drug uptake (Heart [11]): 0.182 % ID/g
Drug uptake (Striatum [12]): 0.293 % ID/g
Drug uptake (Lung [13]): 0.744 % ID/g
Drug uptake (Liver [14]): 3.172 % ID/g
Drug uptake (Blood [15]): 0.21 % ID/g
Drug uptake (Lung [16]): 0.249 % ID/g
Drug uptake (Heart [17]): 0.416 % ID/g
Drug uptake (Muscle tissue [18]): 0.151 % ID/g
Drug uptake (Brain [19]): 0.249 % ID/g
Drug uptake (Kidney [20]): 0.637 % ID/g
Drug uptake (Brain [21]): 0.074 % ID/g
Drug uptake (Liver [22]): 5.357 % ID/g
Drug uptake (Brain [23]): 0.105 % ID/g
Drug uptake (Muscle tissue [24]): 0.129 % ID/g
Drug uptake (Kidney [25]): 0.883 % ID/g
Drug uptake (Rattus norvegicus [26]): 0.139 % ID/g
Drug uptake (Kidney [27]): 1.333 % ID/g
Drug uptake (Lung [28]): 0.389 % ID/g
Drug uptake (Blood [29]): 0.275 % ID/g
Drug uptake (Striatum [30]): 0.16 % ID/g
